8 molecules from paper PMC6301967, “Molecular comparison of Neanderthal and Modern Human adenylosuccinate lyase” (Scientific Reports, 2018) can be followed below.

Usually Kd stands for the equilibrium constant for the complex coming apart. Read a high Kd as lower affinity. Broadly, the stoichiometry N is the number of molecules, sites or subunits per partner or assembly.

Data set [1] deals with T1, hADSL (modern human adenylosuccinate lyase) (Homo sapiens, UniProt P30566).
T1 construct: gene ADSL; N-terminal thrombin-cleavable His tag (pET-14b), E. coli Rosetta2 (DE3); tag cut, but kept for the domain 3 mutants; homotetramer; Val429
T1 sequence (P30566 1-484): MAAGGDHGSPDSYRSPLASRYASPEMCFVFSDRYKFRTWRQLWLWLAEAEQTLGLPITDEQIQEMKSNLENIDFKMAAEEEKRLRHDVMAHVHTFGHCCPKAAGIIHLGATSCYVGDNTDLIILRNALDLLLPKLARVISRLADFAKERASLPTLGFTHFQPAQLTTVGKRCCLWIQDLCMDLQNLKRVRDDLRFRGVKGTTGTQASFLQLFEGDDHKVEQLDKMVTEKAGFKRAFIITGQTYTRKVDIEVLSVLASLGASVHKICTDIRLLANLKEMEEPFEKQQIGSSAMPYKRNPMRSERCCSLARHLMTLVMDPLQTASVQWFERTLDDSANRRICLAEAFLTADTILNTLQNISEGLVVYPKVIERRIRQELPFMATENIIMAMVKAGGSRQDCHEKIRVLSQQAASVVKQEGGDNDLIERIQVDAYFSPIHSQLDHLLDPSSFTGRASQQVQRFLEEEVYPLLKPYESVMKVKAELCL
Description: small angle X-ray scattering. In kind it is binding. The note with it: 1 mM product(s), with fumarate; 20 °C; no curve change with AICAR alone.

Data set [2] deals with T1, hADSL (modern human adenylosuccinate lyase). Description: isothermal titration calorimetry. The format is binding. In general terms: ITC needs no label: the signal is the heat of the interaction.
Data set [3] deals with T2, nADSL (Neanderthal adenylosuccinate lyase).
T2 construct: gene ADSL; Neanderthal (ancestral Ala429) variant, equals human ADSL with V429A; N-terminal thrombin-cleavable His tag (pET-14b), cut; E. coli Rosetta2 (DE3); homotetramer
Description: isothermal titration calorimetry. The note with it: 10 mM HEPES pH 7.5, 100 mM NaCl, 1 mM DTT, 20 °C; 90 µM protein in cell. The format is binding, Homo sapiens neanderthalensis.

Data set [4] has as its system T2, nADSL (Neanderthal adenylosuccinate lyase). Description: absorbance at […] nm, SAMP breakdown. In kind it is biochemical, Homo sapiens neanderthalensis. The note with it: forward reaction, room temperature; positive cooperativity, Hill coefficient 1.8; read-out: K0.5.
The test system is the same in data set [5]. Put plainly: absorbance at […] nm, SAMP formation. The note with it: reverse reaction, 1 mM AMP, room temperature; Michaelis-Menten fit. The format is biochemical, Homo sapiens neanderthalensis.
The target in data set [6] is T1, hADSL (modern human adenylosuccinate lyase). Put plainly: absorbance at […] nm, SAMP formation. In kind it is biochemical. The note with it: reverse reaction, 1 mM AMP, room temperature; Michaelis-Menten fit.
Data set [7] deals with the molecule itself. Description: SEC; Superdex 200 in 10 mM HEPES pH 7.5, 100 mM NaCl, 1 mM DTT; last step of the purification; single peak.
Substrate in data set [8]: O=C(O)C[C@H](Nc1ncnc2c1ncn2[C@@H]1O[C@H](COP(=O)(O)O)[C@@H](O)[C@H]1O)C(=O)O
Put plainly: purified protein. In kind it is biochemical, Homo sapiens. The settings on record: room temperature.

Data set [9] deals with the molecule itself. Description: crystal structure; nADSL apo (1.7 Å), with AMP/fumarate (2.3 Å) and with AICAR/fumarate; vapour diffusion, 10 mg/mL protein; homotetramer.
Setting [10] is: His tag not cleaved, 0.01 mg/mL enzyme, cooperative model fit.

Where a chain is given by its changes, count along the chain named. Names may count otherwise.

On to `NC(=O)c1ncn([C@@H]2O[C@H](COP(=O)(O)O)[C@@H](O)[C@H]2O)c1N` [AICAR], for which, in data set [1], the “small angle X-ray scattering” value is on record as “addition of both AMP/fumarate or AICAR/fumarate to the protein results in a similar altered scattering”.

As for `Nc1ncnc2c1ncn2[C@@H]1O[C@H](COP(=O)(O)O)[C@@H](O)[C@H]1O` [AMP], the Kd in data set [2] and in [3] was around 25 µM each time. Regarding `O=C(O)C[C@H](Nc1ncnc2c1ncn2[C@@H]1O[C@H](COP(=O)(O)O)[C@@H](O)[C@H]1O)C(=O)O` [SAMP], the Km in data set [4] amounted to 1100 nM. For `O=C(O)/C=C/C(=O)O` [fumarate], the Km was 66 µM in [5] and 80 µM in [6].

B1: modern human adenylosuccinate lyase (enzyme, UniProt P30566 1-484, looked up)
chain: T1 sequence (P30566 1-484)
notes: adenylosuccinate lyase (ADSL), modern human (Val429); Expressed from pET-14b with a thrombin-cleavable N-terminal histidine tag; also called hADSL; native hADSL; source: E. coli Rosetta2 (DE3), purified (HisTrap, thrombin cleavage, benzamidine-sepharose, Superdex 200); not shown: histidine tag, N-terminal, cleaved
Turning to B1, the “stoichiometry N” value in data set [7] came to 4. For the same molecule, the K0.5 in data set [8] (forward reaction, positive cooperativity, Hill coefficient 1.6) came out at 1.1 µM.

B2: hADSL (modern human adenylosuccinate lyase) (Homo sapiens; R426H) (protein)
chain: T1 sequence (P30566 1-484) with R426H
notes: N-terminal thrombin-cleavable His tag (pET-14b), E. coli Rosetta2 (DE3); tag cut, but kept for the domain 3 mutants; homotetramer; Val429
B2: the K0.5 in [8] (setting [10]) was 0.75 ± 0.06 µM.

B3: hADSL (modern human adenylosuccinate lyase) (Homo sapiens; D422Y) (protein)
chain: T1 sequence (P30566 1-484) with D422Y
notes: as for B2
Consider B3, for which, in data set [8] (setting [10]), the K0.5 is given as 0.36 ± 0.03 µM.

B4: Neanderthal adenylosuccinate lyase (enzyme)
chain: T1 sequence (P30566 1-484) with V429A
notes: Expressed from pET-14b with a thrombin-cleavable N-terminal histidine tag; also called nADSL; ancestral Ala429 ADSL variant; source: E. coli Rosetta2 (DE3), purified (HisTrap, thrombin cleavage, benzamidine-sepharose, Superdex 200); not shown: histidine tag, N-terminal, cleaved
Take B4: the “stoichiometry N” value in data set [9] was found to be 4.
